In patent publication US8192962B2, “Processes for detecting toxic substances” (Daikin Industries, Ltd., priority 2001, dated 2012):

Test system: Unknown protein yeast genes
Assay: DNA chip mRNA expression in yeast, unknown protein yeast genes (Table 1)
Assay type: cell-based, Saccharomyces cerevisiae S288C
Summary of the method: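 Values are treated/untreated fluorescence ratios from a whole-genome yeast DNA chip hybridized over 12 hours at 65° C with Cy3- or Cy5-labelled cDNA from poly(A) mRNA. Log-phase S288C yeast in YPD at 25° C had received a single toxic chemical for two hours, dosed to slow growth without killing.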

[Cl][Hg][Cl] [(3), HgCl2]
The level of expressed mRNA in the presence of chemical substance/The level of expressed mRNA in the absence of chemical substance (yeast gene YAL053W, incubated two hours with chemical substance): 1.3 | The level of expressed mRNA in the presence of chemical substance/The level of expressed mRNA in the absence of chemical substance (yeast gene YBL048W): 2.3 | The level of expressed mRNA in the presence of chemical substance/The level of expressed mRNA in the absence of chemical substance (yeast gene YBL107C): 0.4 | The level of expressed mRNA in the presence of chemical substance/The level of expressed mRNA in the absence of chemical substance (yeast gene YDL072C, incubated two hours with chemical substance): 3.5 | The level of expressed mRNA in the presence of chemical substance/The level of expressed mRNA in the absence of chemical substance (yeast gene YDL204W, incubated two hours with chemical substance): 4.8 | The level of expressed mRNA in the presence of chemical substance/The level of expressed mRNA in the absence of chemical substance (yeast gene YDL222C, incubated two hours with chemical substance): 1.5 | The level of expressed mRNA in the presence of chemical substance/The level of expressed mRNA in the absence of chemical substance (yeast gene YDR330W, incubated two hours with chemical substance): 1.2 | The level of expressed mRNA in the presence of chemical substance/The level of expressed mRNA in the absence of chemical substance (yeast gene YDR411C, incubated two hours with chemical substance): 1.8 | The level of expressed mRNA in the presence of chemical substance/The level of expressed mRNA in the absence of chemical substance (yeast gene YDR511W, incubated two hours with chemical substance): 0.9 | The level of expressed mRNA in the presence of chemical substance/The level of expressed mRNA in the absence of chemical substance (yeast gene YDR545W, incubated two hours with chemical substance): 0.6 | The level of expressed mRNA in the presence of chemical substance/The level of expressed mRNA in the absence of chemical substance (yeast gene YEL001C, incubated two hours with chemical substance): 1.4 | The level of expressed mRNA in the presence of chemical substance/The level of expressed mRNA in the absence of chemical substance (yeast gene YER004W, incubated two hours with chemical substance): 1.9 | The level of expressed mRNA in the presence of chemical substance/The level of expressed mRNA in the absence of chemical substance (yeast gene YER035W, incubated two hours with chemical substance): 1.6 | The level of expressed mRNA in the presence of chemical substance/The level of expressed mRNA in the absence of chemical substance (yeast gene YER079W, incubated two hours with chemical substance): 1.9 | The level of expressed mRNA in the presence of chemical substance/The level of expressed mRNA in the absence of chemical substance (yeast gene YER106W, incubated two hours with chemical substance): 1.3 | The level of expressed mRNA in the presence of chemical substance/The level of expressed mRNA in the absence of chemical substance (yeast gene YER158C, incubated two hours with chemical substance): 0.9 | The level of expressed mRNA in the presence of chemical substance/The level of expressed mRNA in the absence of chemical substance (yeast gene YER163C, incubated two hours with chemical substance): 1.2 | The level of expressed mRNA in the presence of chemical substance/The level of expressed mRNA in the absence of chemical substance (yeast gene YER175C, incubated two hours with chemical substance): 1.3 | The level of expressed mRNA in the presence of chemical substance/The level of expressed mRNA in the absence of chemical substance (yeast gene YFL006W, incubated two hours with chemical substance): 1.6 | The level of expressed mRNA in the presence of chemical substance/The level of expressed mRNA in the absence of chemical substance (yeast gene YFL010C, incubated two hours with chemical substance): 1.3 | The level of expressed mRNA in the presence of chemical substance/The level of expressed mRNA in the absence of chemical substance (yeast gene YFL024C): 1.1 | The level of expressed mRNA in the presence of chemical substance/The level of expressed mRNA in the absence of chemical substance (yeast gene YFL032W, incubated two hours with chemical substance): 1.6 | The level of expressed mRNA in the presence of chemical substance/The level of expressed mRNA in the absence of chemical substance (yeast gene YGL037C, incubated two hours with chemical substance): 6.5 | The level of expressed mRNA in the presence of chemical substance/The level of expressed mRNA in the absence of chemical substance (yeast gene YGL047W, incubated two hours with chemical substance): 1.6 | The level of expressed mRNA in the presence of chemical substance/The level of expressed mRNA in the absence of chemical substance (yeast gene YGL053W, incubated two hours with chemical substance): 1.2 | The level of expressed mRNA in the presence of chemical substance/The level of expressed mRNA in the absence of chemical substance (yeast gene YGL121C): 1.4 | The level of expressed mRNA in the presence of chemical substance/The level of expressed mRNA in the absence of chemical substance (yeast gene YGL199C, incubated two hours with chemical substance): 1.7 | The level of expressed mRNA in the presence of chemical substance/The level of expressed mRNA in the absence of chemical substance (yeast gene YGR101W, incubated two hours with chemical substance): 1.2 | The level of expressed mRNA in the presence of chemical substance/The level of expressed mRNA in the absence of chemical substance (yeast gene YGR110W): 2.2 | The level of expressed mRNA in the presence of chemical substance/The level of expressed mRNA in the absence of chemical substance (yeast gene YGR130C, incubated two hours with chemical substance): 0.6 | The level of expressed mRNA in the presence of chemical substance/The level of expressed mRNA in the absence of chemical substance (yeast gene YGR154C, incubated two hours with chemical substance): 2.2 | The level of expressed mRNA in the presence of chemical substance/The level of expressed mRNA in the absence of chemical substance (yeast gene YGR221C, incubated two hours with chemical substance): 0.9 | The level of expressed mRNA in the presence of chemical substance/The level of expressed mRNA in the absence of chemical substance (yeast gene YHR138C, incubated two hours with chemical substance): 2.2 | The level of expressed mRNA in the presence of chemical substance/The level of expressed mRNA in the absence of chemical substance (yeast gene YHR199C, incubated two hours with chemical substance): 3.2 | The level of expressed mRNA in the presence of chemical substance/The level of expressed mRNA in the absence of chemical substance (yeast gene YIL023C, incubated two hours with chemical substance): 2.1 | The level of expressed mRNA in the presence of chemical substance/The level of expressed mRNA in the absence of chemical substance (yeast gene YIL041W, incubated two hours with chemical substance): 2.1 | The level of expressed mRNA in the presence of chemical substance/The level of expressed mRNA in the absence of chemical substance (yeast gene YIL087C, incubated two hours with chemical substance): 3.4 | The level of expressed mRNA in the presence of chemical substance/The level of expressed mRNA in the absence of chemical substance (yeast gene YJL057C, incubated two hours with chemical substance): 1.6 | The level of expressed mRNA in the presence of chemical substance/The level of expressed mRNA in the absence of chemical substance (yeast gene YJL066C, incubated two hours with chemical substance): 1.2 | The level of expressed mRNA in the presence of chemical substance/The level of expressed mRNA in the absence of chemical substance (yeast gene YJL082W, incubated two hours with chemical substance): 2.4 | The level of expressed mRNA in the presence of chemical substance/The level of expressed mRNA in the absence of chemical substance (yeast gene YJL151C, incubated two hours with chemical substance): 3.2 | The level of expressed mRNA in the presence of chemical substance/The level of expressed mRNA in the absence of chemical substance (yeast gene YJL152W, incubated two hours with chemical substance): 1.8 | The level of expressed mRNA in the presence of chemical substance/The level of expressed mRNA in the absence of chemical substance (yeast gene YJL161W, incubated two hours with chemical substance): 1.5 | The level of expressed mRNA in the presence of chemical substance/The level of expressed mRNA in the absence of chemical substance (yeast gene YJL171C, incubated two hours with chemical substance): 2.8 | The level of expressed mRNA in the presence of chemical substance/The level of expressed mRNA in the absence of chemical substance (yeast gene YJR008W, incubated two hours with chemical substance): 1.2 | The level of expressed mRNA in the presence of chemical substance/The level of expressed mRNA in the absence of chemical substance (yeast gene YJR054W, incubated two hours with chemical substance): 0.3 | The level of expressed mRNA in the presence of chemical substance/The level of expressed mRNA in the absence of chemical substance (yeast gene YKL071W): 5.4 | The level of expressed mRNA in the presence of chemical substance/The level of expressed mRNA in the absence of chemical substance (yeast gene YKL086W, incubated two hours with chemical substance): 2.4 | The level of expressed mRNA in the presence of chemical substance/The level of expressed mRNA in the absence of chemical substance (yeast gene YKL151C, incubated two hours with chemical substance): 1.7 | The level of expressed mRNA in the presence of chemical substance/The level of expressed mRNA in the absence of chemical substance (yeast gene YKL153W, incubated two hours with chemical substance): 2.0
